Values joined by “and” are separate entries in the source; they are usually repeats but may differ in a detail not shown here. Equal entries are not always repeated. Toxic doses and inconclusive results are not listed.
Tested on: BDF1 mice, P388 leukemia ip, median survival T/C
Assay: NCI In Vivo Anticancer Drug Screen. Data for tumor model P388 Leukemia (intraperitoneal) in B6D2F1 (BDF1) mice
Settings: endpoint: median survival time, higher = longer survival
Summary of the method: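 Transplantable tumour in mice; compound vs vehicle dosing; survival scored; ratio of treated to control reported.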

SMILES: N#Cc1cccc(C[P+](c2ccccc2)(c2ccccc2)c2ccccc2)c1
- T/C (dose: 6.25 mg/kg/injection, schedule: Q01DX009 (ip), vehicle: Klucel (hydroxypropylcellulose) (HPC)): 86 % of control
- T/C (dose: 12.5 mg/kg/injection, schedule: Q01DX009 (ip), vehicle: Klucel (hydroxypropylcellulose) (HPC)): 95 % of control
- T/C (dose: 17.0 mg/kg/injection, schedule: Q04DX003 (ip), vehicle: Klucel (hydroxypropylcellulose) (HPC)): 95 % of control and 104 % of control
- T/C (dose: 25.0 mg/kg/injection, schedule: Q01DX009 (ip), vehicle: Klucel (hydroxypropylcellulose) (HPC)): 104 % of control
- T/C (dose: 35.0 mg/kg/injection, schedule: Q01DX009 (ip), vehicle: Klucel (hydroxypropylcellulose) (HPC)): 86 % of control
- T/C (dose: 40.0 mg/kg/injection, schedule: Q04DX003 (ip), vehicle: Klucel (hydroxypropylcellulose) (HPC)): 95 % of control and 100 % of control
- T/C (dose: 52.5 mg/kg/injection, schedule: Q04DX003 (ip), vehicle: Klucel (hydroxypropylcellulose) (HPC)): 115 % of control

SMILES: O=C1CCC2(CCCC2)c2ccccc21
- T/C (dose: 25.0 mg/kg/injection, schedule: Q01DX009 (ip), vehicle: water): 95 % of control
- T/C (dose: 50.0 mg/kg/injection, schedule: Q01DX009 (ip), vehicle: water): 97 % of control
- T/C (dose: 100.0 mg/kg/injection, schedule: Q01DX009 (ip), vehicle: water): 106 % of control
- T/C (dose: 200.0 mg/kg/injection, schedule: Q01DX009 (ip), vehicle: water): 103 % of control
- T/C (dose: 400.0 mg/kg/injection, schedule: Q01DX009 (ip), vehicle: water): 106 % of control

SMILES: O=C(Nc1ccc(C(=O)Nc2cc(S(=O)(=O)O)cc3cccc(S(=O)(=O)O)c23)cc1)Nc1ccc(C(=O)Nc2cc(S(=O)(=O)O)cc3cccc(S(=O)(=O)O)c23)cc1
- T/C (dose: 50.0 mg/kg/injection, schedule: Q01DX009 (ip), vehicle: Klucel (hydroxypropylcellulose) (HPC)): 95 % of control
- T/C (dose: 50.0 mg/kg/injection, schedule: Q04DX003 (ip), vehicle: Klucel (hydroxypropylcellulose) (HPC)): 100 % of control
- T/C (dose: 100.0 mg/kg/injection, schedule: Q01DX009 (ip), vehicle: Klucel (hydroxypropylcellulose) (HPC)): 110 % of control
- T/C (dose: 100.0 mg/kg/injection, schedule: Q04DX003 (ip), vehicle: Klucel (hydroxypropylcellulose) (HPC)): 104 % of control
- T/C (dose: 200.0 mg/kg/injection, schedule: Q04DX003 (ip), vehicle: Klucel (hydroxypropylcellulose) (HPC)): 86 % of control

SMILES: NC(=S)N/N=C\c1ncccc1OCc1cccc(N)c1
- T/C (dose: 25.0 mg/kg/injection, schedule: Q01DX009 (ip), vehicle: other): 165 % of control
- T/C (dose: 50.0 mg/kg/injection, schedule: Q01DX009 (ip), vehicle: other): 150 % of control
- T/C (dose: 100.0 mg/kg/injection, schedule: Q01DX009 (ip), vehicle: other): 163 % of control
- T/C (dose: 200.0 mg/kg/injection, schedule: Q01DX009 (ip), vehicle: other): 182 % of control

SMILES: CC([CH2][Hg][Cl])c1ccccc1 (stereo unspecified)
- T/C (dose: 3.13 mg/kg/injection, schedule: Q01DX009 (ip), vehicle: saline with Tween-80): 122 % of control
- T/C (dose: 4.16 mg/kg/injection, schedule: Q01DX009 (ip), vehicle: saline with Tween-80): 118 % of control
- T/C (dose: 6.25 mg/kg/injection, schedule: Q01DX009 (ip), vehicle: saline with Tween-80): 113 % of control
- T/C (dose: 9.38 mg/kg/injection, schedule: Q01DX009 (ip), vehicle: saline with Tween-80): 109 % of control
- T/C (dose: 12.5 mg/kg/injection, schedule: Q01DX009 (ip), vehicle: saline with Tween-80): 109 % of control

SMILES: CCOC(=O)Nc1cc(NC(c2ccccc2)c2ccccc2)c2[nH]cnc2n1
- T/C (dose: 15.0 mg/kg/injection, schedule: Q04DX003 (ip), vehicle: saline with Tween-80): 87 % of control
- T/C (dose: 60.0 mg/kg/injection, schedule: Q04DX003 (ip), vehicle: saline with Tween-80): 108 % of control

SMILES: Nc1nc2nc(N=Nc3ccccc3)[nH]c2c(=O)[nH]1
- T/C (dose: 50.0 mg/kg/injection, schedule: Q01DX005 (ip), vehicle: saline with Tween-80): 100 % of control
- T/C (dose: 100.0 mg/kg/injection, schedule: Q01DX005 (ip), vehicle: saline with Tween-80): 91 % of control
- T/C (dose: 200.0 mg/kg/injection, schedule: Q01DX005 (ip), vehicle: saline with Tween-80): 110 % of control

SMILES: CC(C)CC(NC(=O)C(O)C(N)Cc1ccccc1)C(=O)O (stereo unspecified)
- T/C (dose: 37.5 mg/kg/injection, schedule: Q01DX009 (ip), vehicle: saline with Tween-80): 94 % of control and 98 % of control
- T/C (dose: 75.0 mg/kg/injection, schedule: Q01DX009 (ip), vehicle: saline with Tween-80): 95 % of control and 98 % of control
- T/C (dose: 150.0 mg/kg/injection, schedule: Q01DX009 (ip), vehicle: saline with Tween-80): 95 % of control and 100 % of control

SMILES: c1ccc(CCN2CCC(CCc3c[nH]c4ccccc34)CC2)cc1
- T/C (dose: 12.5 mg/kg/injection, schedule: Q01DX010 (ip), vehicle: saline): 100 % of control
- T/C (dose: 25.0 mg/kg/injection, schedule: Q01DX010 (ip), vehicle: saline): 109 % of control
- T/C (dose: 50.0 mg/kg/injection, schedule: Q01DX010 (ip), vehicle: saline): 122 % of control
- T/C (dose: 100.0 mg/kg/injection, schedule: Q01DX010 (ip), vehicle: saline): 114 % of control

SMILES: CCOC(=O)c1ccc(NC(C)=O)c(CSC)c1
- T/C (dose: 50.0 mg/kg/injection, schedule: Q04DX002 (ip), vehicle: saline with Tween-80): 107 % of control
- T/C (dose: 100.0 mg/kg/injection, schedule: Q04DX002 (ip), vehicle: saline with Tween-80): 98 % of control
- T/C (dose: 200.0 mg/kg/injection, schedule: Q04DX002 (ip), vehicle: saline with Tween-80): 99 % of control

From PubChem BioAssay AID328 (DTP/NCI, 2004)
